Reference: EP4653445A1, “CDK INHIBITOR AND CRYSTAL FORM OF PHARMACEUTICALLY ACCEPTABLE SALT THEREOF, AND USE THEREOF” (CSPC Zhongqi Pharmaceutical Technology (Shijiazhuang) Co., …, priority 2023, dated 2024)

Legend:
[1] = Grinding or crushing of the crystalline form; format: physicochemical
Description: Table 28 Results of Stability Test

[2] = Long-term stability testing; format: physicochemical; settings: 25°C±2°C/60%±5%RH, simulated commercial packaging
[3] = Solubility comparison in water, SGF, FaSSIF and FeSSIF (HPLC of filtrates, XRPD of filter cakes); settings: SGF, time not stated
[4] = Stability test, samples placed open for 7 days (HPLC and XRPD); format: physicochemical; settings: for XRPD-7days / Purity (Peak area%) 7 days: open
Description: Subsequently, the samples after 7 days were respectively detected by HPLC and XRPD to determine their chemical and physical stabilities.

[5] = Accelerated stability testing; format: physicochemical; settings: 40°C±2°C/75%±5%RH, simulated commercial packaging
[6] = Dynamic vapor sorption (DVS) test; format: physicochemical; settings: DVS
Procedure: • Instrument: TA Instruments Q5000 SA • Detection method: 20 to 50 mg of the sample was placed in a tared sample basket and automatically weighed, and DVS testing was performed according to the parameters in Table 7: Step Time: 60 min; Equilibration Time per RH%: 1 hour; Total Gas Flow Rate: 200 sccm; Gradient mode: 0%-90%-0% humidity variation, with a humidity variation amount of 10% for each gradient level between 0% and 90%, and gradient endpoint was determined by dm/dt < 0.01% maintained for 10 minutes.

[7] = Stress testing (high temperature, high humidity, illumination); format: physicochemical
[8] = Stability test, samples placed open for 7 days (HPLC and XRPD); format: physicochemical; settings: HPLC
[9] = High Humidity (92.5% RH), 7 days
[10] = High Humidity (92.5% RH), 14 days
[11] = High Humidity (92.5% RH), 30 days
[12] = High Temperature (60°C), 7 days
[13] = High Temperature (60°C), 14 days
[14] = High Temperature (60°C), 30 days
[15] = Illumination Testing 4500lx±500lx, 7 days
[16] = Illumination Testing 4500lx±500lx, 14 days
[17] = Illumination Testing 4500lx±500lx, 30 days

CC(=O)c1c(C)c2cnc(Nc3ccc4c(c3)OC[C@@H]3CN(C5CCN(C)CC5)CCN43)nc2n(C2CCCC2)c1=O [crystalline form A-I of the free base of compound A]
crystalline form after grinding or crushing [1]: remained unchanged
description, loss on drying, relevant substances, crystalline form and content compared with 0 month ([2]; 18 months): basically the same
Description Appearance ([2]; 0 months): Yellow solid
Measured content (%) ([2]; 0 months): 99.5%
Total impurities (%) ([2]; 0 months): 0.84%
crystalline form ([2]; 0 months): crystalline form A-I of free base
loss on drying (%) ([2]; 0 months): 0.03%
Description Appearance ([2]; 3 months): Yellow solid
Measured content (%) ([2]; 3 months): 100.8%
Total impurities (%) ([2]; 3 months): 0.89%
crystalline form ([2]; 3 months): Unchanged
loss on drying (%) ([2]; 3 months): 0.02%
Description Appearance ([2]; 6 months): Yellow solid
Measured content (%) ([2]; 6 months): 100.6%
Total impurities (%) ([2]; 6 months): 0.75%
crystalline form ([2]; 6 months): Unchanged
loss on drying (%) ([2]; 6 months): 0.05%
Description Appearance ([2]; 9 months): Yellow solid
Measured content (%) ([2]; 9 months): 99.6%
Total impurities (%) ([2]; 9 months): 0.73%
crystalline form ([2]; 9 months): Unchanged
loss on drying (%) ([2]; 9 months): 0.05%
Description Appearance ([2]; 12 months): Yellow solid
Measured content (%) ([2]; 12 months): 100.8%
Total impurities (%) ([2]; 12 months): 0.78%
crystalline form ([2]; 12 months): Unchanged
loss on drying (%) ([2]; 12 months): 0.05%
Description Appearance ([2]; 18 months): Yellow solid
Measured content (%) ([2]; 18 months): 98.7%
Total impurities (%) ([2]; 18 months): 0.71%
crystalline form ([2]; 18 months): Unchanged
loss on drying (%) ([2]; 18 months): 0.03%
solubility in SGF [3]: more than 5 mg/mL
XRPD-7days ([4]; 40°C /75%RH): Unchanged
Purity (Peak area%) 7 days ([4]; 40°C /75%RH, HPLC): 99.20 Peak area%
chemical stability ([4]; 60 °C, 92.5% RH and 40 °C/75% RH for 7 days, HPLC): chemically stable
XRPD-7days ([4]; 60°C): Unchanged
Purity (Peak area%) 7 days ([4]; 60°C, HPLC): 99.24 Peak area%
XRPD-7days ([4]; 92.5%RH): Unchanged
Purity (Peak area%) 7 days ([4]; 92.5%RH, HPLC): 99.24 Peak area%
crystalline form (XRPD) after 7 days ([4]; under the three conditions 60 °C, 92.5% RH and 40 °C/75% RH): remained unchanged
description, loss on drying, relevant substances, crystalline form and content compared with 0 month ([5]; 6 months): basically the same
Description Appearance ([5]; 0 months): Yellow solid
Measured content (%) ([5]; 0 months): 99.5%
Total impurities (%) ([5]; 0 months): 0.84%
crystalline form ([5]; 0 months): crystalline form A-I of free base
loss on drying (%) ([5]; 0 months): 0.03%
Description Appearance ([5]; 1 month): Yellow solid
Measured content (%) ([5]; 1 month): 100.4%
Total impurities (%) ([5]; 1 month): 0.80%
loss on drying (%) ([5]; 1 month): 0.04%
Description Appearance ([5]; 2 months): Yellow solid
Measured content (%) ([5]; 2 months): 100.8%
Total impurities (%) ([5]; 2 months): 0.82%
loss on drying (%) ([5]; 2 months): 0.02%
Description Appearance ([5]; 3 months): Yellow solid
Measured content (%) ([5]; 3 months): 100.6%
Total impurities (%) ([5]; 3 months): 0.85%
crystalline form ([5]; 3 months): Unchanged
loss on drying (%) ([5]; 3 months): 0.02%
Description Appearance ([5]; 6 months): Yellow solid
Measured content (%) ([5]; 6 months): 100.9%
Total impurities (%) ([5]; 6 months): 0.77%
crystalline form ([5]; 6 months): Unchanged
loss on drying (%) ([5]; 6 months): 0.08%
hygroscopic properties ([6]; 0%-90% RH): non-hygroscopic
weight change ([6]; across 0%-90% RH): approximately 0.17%
Content (%) ([7]; 0 Day): 99.5%
Description Appearance ([7]; 0 Day): Yellow solid
Total impurities (%) ([7]; 0 Day): 0.84%
crystalline form ([7]; 0 Day): crystalline form A-I of free base
loss on drying (%) ([7]; 0 Day): 0.03%
Content (%) [7, 9]: 100.2%
Description Appearance [7, 9]: Yellow solid
Hygroscopic weight gain (%) [7, 9]: 0.03%
Total impurities (%) [7, 9]: 0.76%
loss on drying (%) [7, 9]: 0.06%
Content (%) [7, 10]: 99.6%
Description Appearance [7, 10]: Yellow solid
Hygroscopic weight gain (%) [7, 10]: 0.05%
Total impurities (%) [7, 10]: 0.78%
loss on drying (%) [7, 10]: 0.07%
Content (%) [7, 11]: 101.0%
Description Appearance [7, 11]: Yellow solid
Hygroscopic weight gain (%) [7, 11]: 0.09%
Total impurities (%) [7, 11]: 0.87%
crystalline form [7, 11]: Unchanged
loss on drying (%) [7, 11]: 0.05%
Content (%) [7, 12]: 100.4%
Description Appearance [7, 12]: Yellow solid
Total impurities (%) [7, 12]: 0.76%
loss on drying (%) [7, 12]: 0.05%
Content (%) [7, 13]: 100.6%
Description Appearance [7, 13]: Yellow solid
Total impurities (%) [7, 13]: 0.83%
loss on drying (%) [7, 13]: 0.05%
Content (%) [7, 14]: 100.1%
Description Appearance [7, 14]: Yellow solid
Total impurities (%) [7, 14]: 0.81%
crystalline form [7, 14]: Unchanged
loss on drying (%) [7, 14]: 0.03%
Content (%) [7, 15]: 101.0%
Description Appearance [7, 15]: Yellow solid
Total impurities (%) [7, 15]: 0.76%
loss on drying (%) [7, 15]: 0.07%
Content (%) [7, 16]: 100.2%
Description Appearance [7, 16]: Yellow solid
Total impurities (%) [7, 16]: 0.79%
loss on drying (%) [7, 16]: 0.06%
Content (%) [7, 17]: 100.2%
Description Appearance [7, 17]: Yellow solid
Total impurities (%) [7, 17]: 0.84%
crystalline form [7, 17]: Unchanged
loss on drying (%) [7, 17]: 0.07%
stability in stress testing (conclusion) ([7]; high temperature, high humidity and illumination conditions): good stability
stability under illumination ([7]; illuminance 4500 lx±500 lx, total not less than 1.2×10^6 lux·hr, near-UV not less than 200 W·hr/m^2): relatively stable
Purity (Peak area%) 0 day [8]: 99.16 Peak area%
